Measured values from PubChem BioAssay AID248 (DTP/NCI, 2004).
Several values for one entry are separate records, joined by “and”; a condition that tells them apart may be missing. Equal entries are not always repeated. Toxic doses and inconclusive results are not listed. Cut-off read from the data, not from the text of the source: active = T/C of 150% or more; inactive = T/C below 125%.

Tested on: L1210 leukemia ip in BDF1 mice, survival T/C
Experiment: NCI In Vivo Anticancer Drug Screen. Data for tumor model L1210 Leukemia (intraperitoneal) in B6D2F1 (BDF1) mice
Conditions: endpoint: mean survival time, higher = longer survival
In short: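 In this screen, tumor-bearing mice given compound are compared to those given vehicle, and their survival values are reported as a treated-to-control quotient.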

[1] = dose: 50.0 mg/kg/injection, schedule: Q01DX001 (ip), vehicle: carboxymethylcellulose (CMC)
[2] = dose: 100.0 mg/kg/injection, schedule: Q01DX001 (ip), vehicle: carboxymethylcellulose (CMC)
[3] = dose: 200.0 mg/kg/injection, schedule: Q01DX001 (ip), vehicle: carboxymethylcellulose (CMC)
[4] = dose: 400.0 mg/kg/injection, schedule: Q01DX001 (ip), vehicle: carboxymethylcellulose (CMC)
[5] = dose: 100.0 mg/kg/injection, schedule: Q01DX009 (ip), vehicle: Klucel (hydroxypropylcellulose) (HPC)
[6] = dose: 200.0 mg/kg/injection, schedule: Q01DX009 (ip), vehicle: Klucel (hydroxypropylcellulose) (HPC)
[7] = dose: 400.0 mg/kg/injection, schedule: Q01DX009 (ip), vehicle: Klucel (hydroxypropylcellulose) (HPC)
[8] = dose: 100.0 mg/kg/injection, schedule: Q04DX003 (ip), vehicle: saline with Tween-80
[9] = dose: 200.0 mg/kg/injection, schedule: Q04DX003 (ip), vehicle: saline with Tween-80
[10] = dose: 400.0 mg/kg/injection, schedule: Q04DX003 (ip), vehicle: saline with Tween-80
[11] = dose: 50.0 mg/kg/injection, schedule: Q01DX001 (ip), vehicle: saline
[12] = dose: 100.0 mg/kg/injection, schedule: Q01DX001 (ip), vehicle: saline
[13] = dose: 200.0 mg/kg/injection, schedule: Q01DX001 (ip), vehicle: saline
[14] = dose: 100.0 mg/kg/injection, schedule: Q04DX003 (ip), vehicle: saline
[15] = dose: 200.0 mg/kg/injection, schedule: Q04DX003 (ip), vehicle: saline
[16] = dose: 400.0 mg/kg/injection, schedule: Q04DX003 (ip), vehicle: saline
[17] = dose: 75.0 mg/kg/injection, schedule: Q01DX001 (ip), vehicle: saline
[18] = dose: 150.0 mg/kg/injection, schedule: Q01DX001 (ip), vehicle: saline
[19] = dose: 100.0 mg/kg/injection, schedule: Q01DX009 (ip), vehicle: saline
[20] = dose: 100.0 mg/kg/injection, schedule: Q01DX009 (ip), vehicle: saline with Tween-80
[21] = dose: 200.0 mg/kg/injection, schedule: Q01DX009 (ip), vehicle: saline with Tween-80

Measured: T/C

NC(=O)NNC(=O)NNC(N)=O
inactive: [1] 95 % of control | [2] 95 % of control | [3] 95 % of control | [4] 103 % of control

CCC(CC)C(O)CC(O)CC(C)C (stereo unspecified)
inactive: dose: 25.0 mg/kg/injection, schedule: Q04DX003 (ip), vehicle: other 100 % of control | dose: 50.0 mg/kg/injection, schedule: Q04DX003 (ip), vehicle: other 106 % of control | dose: 100.0 mg/kg/injection, schedule: Q04DX003 (ip), vehicle: other 101 % of control

O=C(Cc1ccccc1)Nc1cccc(C(F)(F)F)c1
inactive: [5] 91 % of control | [6] 95 % of control | [7] 98 % of control

CC12CCC(CC1)C2C(=O)O (stereo unspecified)
inactive: dose: 75.0 mg/kg/injection, schedule: Q01DX009 (ip), vehicle: saline with Tween-80 106 % of control | [8] 102 % of control | dose: 150.0 mg/kg/injection, schedule: Q01DX009 (ip), vehicle: saline with Tween-80 93 % of control | [9] 98 % of control | dose: 300.0 mg/kg/injection, schedule: Q01DX009 (ip), vehicle: saline with Tween-80 98 % of control | [10] 102 % of control

CCOC(=O)c1cc2cc(CC)ccc2[nH]1
inactive: dose: 100.0 mg/kg/injection, schedule: Q01DX001 (ip), vehicle: other 102 % of control | dose: 200.0 mg/kg/injection, schedule: Q01DX001 (ip), vehicle: other 95 % of control | dose: 400.0 mg/kg/injection, schedule: Q01DX001 (ip), vehicle: other 95 % of control

CNc1c(Cl)cc(/C=C2\C=Cc3ccccc32)cc1Cl
inactive: [2] 101 % of control | [3] 101 % of control | [4] 95 % of control

CCOC(=O)NC(CC)c1ccc2oc3ccccc3c2c1 (stereo unspecified)
inactive: dose: 100.0 mg/kg/injection, schedule: Q01DX001 (ip), vehicle: Klucel (hydroxypropylcellulose) (HPC) 98 % of control | [5] 90 % of control | dose: 200.0 mg/kg/injection, schedule: Q01DX001 (ip), vehicle: Klucel (hydroxypropylcellulose) (HPC) 103 % of control | [6] 94 % of control | dose: 400.0 mg/kg/injection, schedule: Q01DX001 (ip), vehicle: Klucel (hydroxypropylcellulose) (HPC) 108 % of control | [7] 95 % of control

C=CCc1c(C)ccc(C)c1OC
inactive: [5] 97 % of control | dose: 100.0 mg/kg/injection, schedule: Q04DX003 (ip), vehicle: Klucel (hydroxypropylcellulose) (HPC) 107 % of control | [6] 95 % of control | dose: 200.0 mg/kg/injection, schedule: Q04DX003 (ip), vehicle: Klucel (hydroxypropylcellulose) (HPC) 102 % of control | [7] 97 % of control | dose: 400.0 mg/kg/injection, schedule: Q04DX003 (ip), vehicle: Klucel (hydroxypropylcellulose) (HPC) 102 % of control

COS(=O)(=O)CCC[n+]1ccccc1
inactive: [11] 98 % of control | [12] 96 % of control | [13] 96 % of control

COC1C(O)C(CO)OC1n1cc(F)c(=O)[nH]c1=O (stereo unspecified)
inactive: [12] 107 % of control | [13] 104 % of control | dose: 400.0 mg/kg/injection, schedule: Q01DX001 (ip), vehicle: saline 111 % of control

O=C(c1ccccc1)C1Cc2ccccc2C1=O (stereo unspecified)
inactive: [5] 100 % of control | [14] 102 % of control | [6] 114 % of control | [15] 102 % of control | [7] 97 % of control | [16] 102 % of control

CCCCC(CC)CSCC(CC)CCCC (stereo unspecified)
inactive: dose: 100.0 mg/kg/injection, schedule: Q04DX003 (ip), vehicle: saline sonified 97 % of control | dose: 200.0 mg/kg/injection, schedule: Q04DX003 (ip), vehicle: saline sonified 93 % of control | dose: 400.0 mg/kg/injection, schedule: Q04DX003 (ip), vehicle: saline sonified 97 % of control

CC(=O)Nc1nnc(NC(C)=O)s1
inactive: dose: 9.38 mg/kg/injection, schedule: Q01DX001 (ip), vehicle: other 102 % of control | dose: 18.75 mg/kg/injection, schedule: Q01DX001 (ip), vehicle: other 107 % of control

CCCCCCc1cccc(C)n1
inactive: [12] 94 % of control | [13] 92 % of control

O=c1oc2ccc(Cl)cc2n1CN1CCOCC1
inactive: [2] 96 % of control | [3] 96 % of control | [4] 88 % of control

CN1CCC(Br)(C(=O)c2ccccc2)CC1
inactive: [17] 101 % of control | [18] 93 % of control

O=C(Nc1nccs1)Nc1cccc2ccccc12
inactive: dose: 100.0 mg/kg/injection, schedule: Q04DX002 (ip), vehicle: Klucel (hydroxypropylcellulose) (HPC) 93 % of control | dose: 200.0 mg/kg/injection, schedule: Q04DX002 (ip), vehicle: Klucel (hydroxypropylcellulose) (HPC) 93 % of control | dose: 400.0 mg/kg/injection, schedule: Q04DX002 (ip), vehicle: Klucel (hydroxypropylcellulose) (HPC) 93 % of control

CC(C)(O)CNCCCN
inactive: [17] 96 % of control | [18] 94 % of control | dose: 300.0 mg/kg/injection, schedule: Q01DX001 (ip), vehicle: saline 102 % of control

CC12CCC3=C(OCCO3)C1=CCC1C2CCC2(C)C(O)CCC12 (stereo unspecified)
inactive: dose: 50.0 mg/kg/injection, schedule: Q01DX001 (sc), vehicle: steriod suspending solution 95 % of control | dose: 100.0 mg/kg/injection, schedule: Q01DX001 (sc), vehicle: steriod suspending solution 91 % of control | dose: 200.0 mg/kg/injection, schedule: Q01DX001 (sc), vehicle: steriod suspending solution 103 % of control | dose: 400.0 mg/kg/injection, schedule: Q01DX001 (sc), vehicle: steriod suspending solution 101 % of control

Br/C=C\c1ccccc1
inactive: dose: 50.0 mg/kg/injection, schedule: Q01DX009 (ip), vehicle: acetone 86 % of control | [19] 107 % of control | [14] 97 % of control | dose: 200.0 mg/kg/injection, schedule: Q01DX009 (ip), vehicle: acetone 95 % of control | [15] 94 % of control | [16] 98 % of control

O=C1COC(=O)c2ccccc2O1
inactive: [8] 101 % of control | [9] 97 % of control | [10] 93 % of control

O=C(Nc1cccc(O)c1)Oc1cccc(Cl)c1
inactive: [20] 98 % of control | [21] 102 % of control | dose: 400.0 mg/kg/injection, schedule: Q01DX009 (ip), vehicle: saline with Tween-80 106 % of control

Cc1c(C(=O)O)cc([N+](=O)[O-])cc1[N+](=O)[O-]
inactive: dose: 50.0 mg/kg/injection, schedule: Q01DX009 (ip), vehicle: saline with Tween-80 103 % of control | [20] 97 % of control | [21] 93 % of control

Cc1cccc[n+]1CC(=O)c1ccc(-c2ccc(C(=O)C[n+]3ccccc3)cc2)cc1
inactive: dose: 0.04 mg/kg/injection, schedule: Q04DX003 (ip), vehicle: saline 102 % of control | dose: 0.08 mg/kg/injection, schedule: Q04DX003 (ip), vehicle: saline 104 % of control | dose: 0.15 mg/kg/injection, schedule: Q04DX003 (ip), vehicle: saline 97 % of control

SC1(S)CC(c2ccc(Cl)cc2)NC(c2ccc(Cl)cc2)C1 (stereo unspecified)
inactive: dose: 50.0 mg/kg/injection, schedule: Q01DX009 (ip), vehicle: saline 100 % of control | [19] 93 % of control and 102 % of control | [14] 98 % of control | dose: 200.0 mg/kg/injection, schedule: Q01DX009 (ip), vehicle: saline 93 % of control and 103 % of control | [15] 89 % of control

CNc1ncnc2[nH]ncc12
inactive: [1] 94 % of control | [2] 88 % of control | [3] 96 % of control | [4] 103 % of control

C=C(C)CC/C=C/C
inactive: [11] 115 % of control | [12] 115 % of control | [13] 110 % of control

O=C(c1ccsc1)C(O)c1ccccc1 (stereo unspecified)
inactive: [2] 97 % of control | [3] 87 % of control | [4] 103 % of control
